{"source": "ChEMBL document CHEMBL4020826", "about": "(J Med Chem, 2018)", "key": {"[1]": {"test": "Plasma concentration in Sprague-Dawley rat at 0.5 mg/kg/day, sc administered via infusion measured after 24 hrs post dose by LC-MS/MS analysis", "assay_type": "ADME, organism-based"}, "[2]": {"test": "Half life in Sprague-Dawley rat at 3 mg/kg, sc measured over 8 hrs by LC-MS/MS analysis", "assay_type": "ADME, organism-based", "details": "in vivo; call rule not given here"}, "[3]": {"test": "Drug level in Sprague-Dawley rat CSF at 0.3 mg/kg, sc administered as single dose measured after 1 hr post dose by LC-MS/MS analysis", "assay_type": "ADME, organism-based, Cerebrospinal fluid", "details": "read-out: Drug uptake"}, "[4]": {"test": "Drug level in Sprague-Dawley rat CSF at 5 mg/kg/day, sc administered via infusion measured after 72 hrs post dose by LC-MS/MS analysis", "assay_type": "ADME, organism-based, Cerebrospinal fluid", "details": "read-out: Drug uptake"}, "[5]": {"target": "Metabotropic glutamate receptor 7 (Homo sapiens, UniProt Q14831)", "sequence (Q14831 whole entry)": "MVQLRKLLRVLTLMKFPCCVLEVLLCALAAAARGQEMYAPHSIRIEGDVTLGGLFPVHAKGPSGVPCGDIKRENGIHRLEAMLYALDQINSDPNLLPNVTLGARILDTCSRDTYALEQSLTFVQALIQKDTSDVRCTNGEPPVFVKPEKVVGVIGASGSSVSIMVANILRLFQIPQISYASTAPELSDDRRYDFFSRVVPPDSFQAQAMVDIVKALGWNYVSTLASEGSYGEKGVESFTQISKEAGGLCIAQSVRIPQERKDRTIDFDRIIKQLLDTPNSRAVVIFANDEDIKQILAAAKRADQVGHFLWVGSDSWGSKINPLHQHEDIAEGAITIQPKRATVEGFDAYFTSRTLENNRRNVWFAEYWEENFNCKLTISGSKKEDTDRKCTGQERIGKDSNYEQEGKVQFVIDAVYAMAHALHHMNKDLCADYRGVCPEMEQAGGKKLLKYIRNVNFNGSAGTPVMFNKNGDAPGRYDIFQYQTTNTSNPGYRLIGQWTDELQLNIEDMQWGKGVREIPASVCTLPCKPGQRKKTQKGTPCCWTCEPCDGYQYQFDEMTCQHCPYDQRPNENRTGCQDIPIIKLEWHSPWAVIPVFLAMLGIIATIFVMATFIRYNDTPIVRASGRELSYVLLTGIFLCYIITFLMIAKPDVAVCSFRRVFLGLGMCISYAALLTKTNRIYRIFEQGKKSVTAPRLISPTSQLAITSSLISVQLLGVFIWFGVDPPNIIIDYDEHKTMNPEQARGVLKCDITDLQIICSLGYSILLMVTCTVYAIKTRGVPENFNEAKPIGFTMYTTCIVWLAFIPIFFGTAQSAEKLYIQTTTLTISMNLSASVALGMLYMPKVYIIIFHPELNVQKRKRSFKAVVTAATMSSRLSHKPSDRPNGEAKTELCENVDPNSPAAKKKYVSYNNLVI", "test": "Antagonist activity at recombinant human mGlu7 receptor expressed in hamster AV12 cells co-expressing rat EAAT1/Galpha15 assessed as inhibition of glutamate induced increase in Ca2+ flux after 2.5 mins by Fluo-3 AM dye-based FLIPR assay", "assay_type": "functional, cell-based"}, "[6]": {"test": "Plasma concentration in Sprague-Dawley rat at 0.5 mg/kg/day, sc administered via infusion measured after 48 hrs post dose by LC-MS/MS analysis", "assay_type": "ADME, organism-based"}, "[7]": {"test": "Drug level in Sprague-Dawley rat CSF at 3 mg/kg, sc administered as single dose measured after 1 hr post dose by LC-MS/MS analysis", "assay_type": "ADME, organism-based, Cerebrospinal fluid", "details": "read-out: Drug uptake"}, "[8]": {"test": "Aqueous solubility of the compound at pH 7.4", "assay_type": "physicochemical", "details": "buffer"}, "[9]": {"test": "Plasma concentration in Sprague-Dawley rat at 0.1 mg/kg, sc administered as single dose measured after 1 hr post dose by LC-MS/MS analysis", "assay_type": "ADME, organism-based"}, "[10]": {"test": "Cmax in Sprague-Dawley rat at 1 mg/kg, iv measured over 8 hrs by LC-MS/MS analysis", "assay_type": "ADME, organism-based", "design": "dose 1 mg/kg, route intravenous", "details": "in vivo"}, "[11]": {"test": "Drug level in Sprague-Dawley rat CSF at 10 mg/kg, sc administered as single dose measured after 1 hr post dose by LC-MS/MS analysis", "assay_type": "ADME, organism-based, Cerebrospinal fluid", "details": "read-out: Drug uptake"}, "[12]": {"target": "Voltage-gated inwardly rectifying potassium channel KCNH2 (Homo sapiens, UniProt Q12809)", "sequence (Q12809 whole entry)": "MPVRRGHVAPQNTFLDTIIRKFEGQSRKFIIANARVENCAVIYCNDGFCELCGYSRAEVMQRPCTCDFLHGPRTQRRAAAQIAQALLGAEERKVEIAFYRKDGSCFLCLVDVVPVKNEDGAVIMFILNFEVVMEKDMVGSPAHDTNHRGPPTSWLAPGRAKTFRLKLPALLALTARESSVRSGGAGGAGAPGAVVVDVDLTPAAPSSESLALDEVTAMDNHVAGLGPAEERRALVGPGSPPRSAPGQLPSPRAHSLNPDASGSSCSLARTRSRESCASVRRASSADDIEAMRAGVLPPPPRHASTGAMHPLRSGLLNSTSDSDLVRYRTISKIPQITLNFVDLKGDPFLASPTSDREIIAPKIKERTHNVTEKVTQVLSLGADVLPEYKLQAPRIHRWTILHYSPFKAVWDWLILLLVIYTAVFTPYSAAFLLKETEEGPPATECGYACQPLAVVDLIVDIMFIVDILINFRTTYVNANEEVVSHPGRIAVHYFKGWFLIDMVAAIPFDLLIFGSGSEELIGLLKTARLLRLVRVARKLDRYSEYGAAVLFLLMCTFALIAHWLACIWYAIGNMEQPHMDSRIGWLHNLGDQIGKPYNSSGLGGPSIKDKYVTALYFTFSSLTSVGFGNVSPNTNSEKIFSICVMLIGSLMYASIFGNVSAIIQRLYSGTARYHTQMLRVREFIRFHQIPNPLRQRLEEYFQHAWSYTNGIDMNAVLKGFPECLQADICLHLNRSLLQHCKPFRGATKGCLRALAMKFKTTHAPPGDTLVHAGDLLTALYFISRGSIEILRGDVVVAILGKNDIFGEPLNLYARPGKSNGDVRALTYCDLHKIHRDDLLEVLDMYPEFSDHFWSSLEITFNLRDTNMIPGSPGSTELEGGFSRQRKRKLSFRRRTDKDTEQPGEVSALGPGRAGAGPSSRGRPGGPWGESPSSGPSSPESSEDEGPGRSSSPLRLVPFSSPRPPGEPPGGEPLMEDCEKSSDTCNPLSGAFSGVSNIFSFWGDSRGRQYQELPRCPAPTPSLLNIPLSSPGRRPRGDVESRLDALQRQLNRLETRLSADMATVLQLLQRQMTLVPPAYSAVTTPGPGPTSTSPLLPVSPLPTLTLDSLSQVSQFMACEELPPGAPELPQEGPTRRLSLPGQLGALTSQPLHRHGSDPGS", "test": "Displacement of [3H]-dofetilide from human ERG"}, "[13]": {"test_system": "Rattus norvegicus", "test": "Toxicity in Sprague-Dawley rat assessed as reduction in spontaneous locomotive activity at 30 mg/kg, sc after 30 mins", "assay_type": "organism-based", "design": "scale not given: the % may be the effect or the level left", "details": "in vivo, 0.5 h"}, "[14]": {"target": "Metabotropic glutamate receptor 1 (Homo sapiens, UniProt Q13255)", "sequence (Q13255 whole entry)": "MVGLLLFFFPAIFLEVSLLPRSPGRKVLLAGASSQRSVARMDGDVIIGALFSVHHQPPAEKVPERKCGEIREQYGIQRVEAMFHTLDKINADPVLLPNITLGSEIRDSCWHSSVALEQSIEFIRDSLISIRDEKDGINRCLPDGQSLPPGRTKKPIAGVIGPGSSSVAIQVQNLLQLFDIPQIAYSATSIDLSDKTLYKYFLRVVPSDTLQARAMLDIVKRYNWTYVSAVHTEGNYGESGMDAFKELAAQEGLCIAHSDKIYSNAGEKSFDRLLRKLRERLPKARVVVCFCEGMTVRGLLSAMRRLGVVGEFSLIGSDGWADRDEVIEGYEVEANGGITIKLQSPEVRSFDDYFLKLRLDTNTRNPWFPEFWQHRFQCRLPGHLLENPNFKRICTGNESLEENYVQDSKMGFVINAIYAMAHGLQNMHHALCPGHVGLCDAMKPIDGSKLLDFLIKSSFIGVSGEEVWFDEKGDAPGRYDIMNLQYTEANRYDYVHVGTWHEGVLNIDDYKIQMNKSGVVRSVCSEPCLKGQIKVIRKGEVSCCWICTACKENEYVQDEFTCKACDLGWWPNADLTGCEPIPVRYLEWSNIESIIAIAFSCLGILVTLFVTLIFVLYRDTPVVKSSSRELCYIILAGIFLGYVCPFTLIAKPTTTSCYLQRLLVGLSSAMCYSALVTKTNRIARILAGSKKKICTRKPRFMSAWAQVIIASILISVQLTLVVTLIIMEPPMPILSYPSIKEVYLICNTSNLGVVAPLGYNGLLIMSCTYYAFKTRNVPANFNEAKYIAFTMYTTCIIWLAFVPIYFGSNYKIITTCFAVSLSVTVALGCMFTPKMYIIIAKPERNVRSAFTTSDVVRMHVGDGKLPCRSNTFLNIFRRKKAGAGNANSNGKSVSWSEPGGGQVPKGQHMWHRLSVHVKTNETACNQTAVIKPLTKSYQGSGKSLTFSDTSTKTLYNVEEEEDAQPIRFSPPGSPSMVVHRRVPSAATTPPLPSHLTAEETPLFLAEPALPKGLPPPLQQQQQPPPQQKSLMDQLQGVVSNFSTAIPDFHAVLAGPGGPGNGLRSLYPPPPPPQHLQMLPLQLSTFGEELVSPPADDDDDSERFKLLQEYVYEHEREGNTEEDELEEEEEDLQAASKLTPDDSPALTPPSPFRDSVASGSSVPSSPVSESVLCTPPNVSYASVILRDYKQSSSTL", "test": "Antagonist activity at recombinant human mGlu1 receptor expressed in hamster AV12 cells co-expressing rat EAAT1/Galpha15 assessed as inhibition of glutamate induced increase in Ca2+ flux after 2.5 mins by Fluo-3 AM dye-based FLIPR assay", "assay_type": "functional, cell-based"}, "[15]": {"target": "T1, Metabotropic glutamate receptor 4 (Homo sapiens, UniProt Q14833)", "T1 sequence (Q14833 whole entry)": "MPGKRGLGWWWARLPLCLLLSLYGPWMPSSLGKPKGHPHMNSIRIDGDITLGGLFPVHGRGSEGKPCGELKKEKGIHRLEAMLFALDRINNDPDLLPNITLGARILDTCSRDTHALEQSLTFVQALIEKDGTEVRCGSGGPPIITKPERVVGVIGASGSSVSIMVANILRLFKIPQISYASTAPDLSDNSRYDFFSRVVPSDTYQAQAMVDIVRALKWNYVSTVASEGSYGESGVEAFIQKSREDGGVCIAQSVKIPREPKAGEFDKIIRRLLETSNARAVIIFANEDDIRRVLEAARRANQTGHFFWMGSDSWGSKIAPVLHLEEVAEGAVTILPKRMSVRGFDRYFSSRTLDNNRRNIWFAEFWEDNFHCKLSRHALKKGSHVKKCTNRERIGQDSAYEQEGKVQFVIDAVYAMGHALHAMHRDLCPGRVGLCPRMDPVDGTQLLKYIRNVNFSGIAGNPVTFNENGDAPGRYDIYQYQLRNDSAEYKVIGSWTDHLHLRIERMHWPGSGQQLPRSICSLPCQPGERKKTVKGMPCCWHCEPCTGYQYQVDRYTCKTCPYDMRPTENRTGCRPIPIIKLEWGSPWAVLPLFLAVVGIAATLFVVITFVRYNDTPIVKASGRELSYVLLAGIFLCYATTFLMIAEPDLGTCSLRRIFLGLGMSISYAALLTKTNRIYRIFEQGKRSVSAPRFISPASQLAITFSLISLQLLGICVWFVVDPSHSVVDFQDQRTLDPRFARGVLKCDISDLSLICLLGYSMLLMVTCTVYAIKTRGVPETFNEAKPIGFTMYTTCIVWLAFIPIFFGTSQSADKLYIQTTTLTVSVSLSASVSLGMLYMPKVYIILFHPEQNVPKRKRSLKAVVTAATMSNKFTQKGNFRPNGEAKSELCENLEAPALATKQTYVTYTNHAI", "test": "Agonist activity at recombinant human mGlu4 receptor expressed in hamster AV12 cells co-expressing rat EAAT1/Galpha15 assessed as induction of increase in Ca2+ flux after 2.5 mins by Fluo-3 AM dye-based FLIPR assay", "assay_type": "functional, cell-based"}, "[16]": {"test": "AUC in Sprague-Dawley rat at 1 mg/kg, iv measured over 8 hrs by LC-MS/MS analysis", "assay_type": "ADME, organism-based", "design": "time < 8 hr, dose 1 mg/kg, route intravenous", "details": "in vivo"}, "[17]": {"test": "Plasma concentration in Sprague-Dawley rat at 5 mg/kg/day, sc administered via infusion measured after 6 hrs post dose by LC-MS/MS analysis", "assay_type": "ADME, organism-based"}, "[18]": {"test": "Plasma concentration in Sprague-Dawley rat at 15 mg/kg/day, sc administered via infusion measured after 72 hrs post dose by LC-MS/MS analysis", "assay_type": "ADME, organism-based"}, "[19]": {"target": "Metabotropic glutamate receptor 5 (Homo sapiens, UniProt P41594)", "test": "Antagonist activity at recombinant human mGlu5 receptor expressed in hamster AV12 cells co-expressing rat EAAT1/Galpha15 assessed as inhibition of glutamate induced increase in Ca2+ flux after 2.5 mins by Fluo-3 AM dye-based FLIPR assay", "assay_type": "functional, cell-based"}, "[20]": {"test": "Clearance in Sprague-Dawley rat at 1 mg/kg, iv measured over 8 hrs by LC-MS/MS analysis", "assay_type": "ADME, organism-based", "details": "in vivo"}, "[21]": {"test": "Plasma concentration in Sprague-Dawley rat at 0.5 mg/kg/day, sc administered via infusion measured after 6 hrs post dose by LC-MS/MS analysis", "assay_type": "ADME, organism-based"}, "[22]": {"test": "Tmax in Sprague-Dawley rat at 3 mg/kg, sc measured over 8 hrs by LC-MS/MS analysis", "assay_type": "ADME, organism-based", "details": "in vivo"}, "[23]": {"target": "Metabotropic glutamate receptor 2 (Homo sapiens, UniProt Q14416)", "test": "Agonist activity at human mGlu2 receptor expressed in HEK cells assessed as inhibition of forskolin-stimulated cAMP formation after 20 mins by HTRF assay", "assay_type": "functional, cell-based"}, "[24]": {"test": "Drug level in Sprague-Dawley rat CSF at 0.5 mg/kg/day, sc administered via infusion measured after 72 hrs post dose by LC-MS/MS analysis", "assay_type": "ADME, organism-based, Cerebrospinal fluid", "details": "read-out: Drug uptake"}, "[25]": {"target": "CYP3A4 (Homo sapiens, UniProt P08684)", "test": "Inhibition of human CYP3A4 at 10 uM", "assay_type": "ADME"}, "[26]": {"target": "Metabotropic glutamate receptor 8 (Homo sapiens, UniProt O00222)", "test": "Agonist activity at recombinant human mGlu8 receptor expressed in hamster AV12 cells co-expressing rat EAAT1/Galpha15 assessed as induction of increase in Ca2+ flux after 2.5 mins by Fluo-3 AM dye-based FLIPR assay", "assay_type": "functional, cell-based"}, "[27]": {"target": "CYP2D6 (Homo sapiens, UniProt P10635)", "test": "Inhibition of human CYP2D6 at 10 uM", "assay_type": "ADME"}, "[28]": {"test": "Drug level in Sprague-Dawley rat CSF at 1.5 mg/kg/day, sc administered via infusion measured after 72 hrs post dose by LC-MS/MS analysis", "assay_type": "ADME, organism-based, Cerebrospinal fluid", "details": "read-out: Drug uptake"}, "[29]": {"test": "Plasma concentration in Sprague-Dawley rat at 1.5 mg/kg/day, sc administered via infusion measured after 6 hrs post dose by LC-MS/MS analysis", "assay_type": "ADME, organism-based"}, "[30]": {"test": "Volume of distribution at steady state in Sprague-Dawley rat at 1 mg/kg, iv measured over 8 hrs by LC-MS/MS analysis", "assay_type": "ADME, organism-based", "details": "in vivo, read-out: Vdss"}, "[31]": {"test": "Plasma concentration in Sprague-Dawley rat at 15 mg/kg/day, sc administered via infusion measured after 12 hrs post dose by LC-MS/MS analysis", "assay_type": "ADME, organism-based"}, "[32]": {"test": "Plasma concentration in Sprague-Dawley rat at 0.3 mg/kg, sc administered as single dose measured after 1 hr post dose by LC-MS/MS analysis", "assay_type": "ADME, organism-based"}, "[33]": {"target": "CYP2C9 (Homo sapiens, UniProt P11712)", "sequence (P11712 whole entry)": "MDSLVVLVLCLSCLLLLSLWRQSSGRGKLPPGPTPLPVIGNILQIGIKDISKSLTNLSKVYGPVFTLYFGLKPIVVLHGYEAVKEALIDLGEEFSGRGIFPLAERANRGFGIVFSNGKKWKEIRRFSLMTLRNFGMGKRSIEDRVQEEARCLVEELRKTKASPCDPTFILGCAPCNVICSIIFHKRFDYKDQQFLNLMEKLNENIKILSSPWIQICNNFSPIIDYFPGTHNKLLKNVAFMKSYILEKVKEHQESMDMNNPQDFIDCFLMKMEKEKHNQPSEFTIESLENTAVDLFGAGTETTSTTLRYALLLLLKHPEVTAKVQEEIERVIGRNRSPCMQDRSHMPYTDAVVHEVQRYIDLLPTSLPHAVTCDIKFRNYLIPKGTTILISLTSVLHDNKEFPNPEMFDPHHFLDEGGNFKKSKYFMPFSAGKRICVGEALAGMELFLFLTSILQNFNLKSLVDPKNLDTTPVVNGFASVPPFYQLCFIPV", "test": "Inhibition of human CYP2C9 at 10 uM", "assay_type": "ADME"}, "[34]": {"test": "Plasma concentration in Sprague-Dawley rat at 5 mg/kg/day, sc administered via infusion measured after 48 hrs post dose by LC-MS/MS analysis", "assay_type": "ADME, organism-based"}, "[35]": {"test": "Bioavailability in Sprague-Dawley rat at 3 mg/kg, sc measured over 8 hrs by LC-MS/MS analysis", "assay_type": "ADME, organism-based", "details": "in vivo"}, "[36]": {"test": "Drug metabolism in human liver microsomes at 4 uM", "assay_type": "ADME, microsome", "details": "read-out: Drug metabolism"}, "[37]": {"target": "T1, Metabotropic glutamate receptor 4", "test": "Antagonist activity at recombinant human mGlu4 receptor expressed in hamster AV12 cells co-expressing rat EAAT1/Galpha15 assessed as inhibition of glutamate induced increase in Ca2+ flux after 2.5 mins by Fluo-3 AM dye-based FLIPR assay", "assay_type": "functional, cell-based"}}, "data": [{"smiles": "COc1cccc(C(=O)N[C@H]2C[C@@](N)(C(=O)O)[C@@H]3[C@@H](C(=O)O)[C@@H]32)c1", "values": [{"measurement": "concentration at 24 h", "setting": "[1]", "value": 124, "unit": "nM"}, {"measurement": "half-life", "setting": "[2]", "value": 2.9, "unit": "h"}, {"measurement": "concentration at 1 h", "setting": "[3]", "value": 6.91, "unit": "nM"}, {"measurement": "concentration at 72 h", "setting": "[4]", "value": 25.2, "unit": "nM"}, {"measurement": "IC50", "setting": "[5]", "value": "> 12.5", "unit": "µM"}, {"measurement": "concentration at 48 h", "setting": "[6]", "value": 95.1, "unit": "nM"}, {"measurement": "concentration at 1 h", "setting": "[7]", "value": 73.6, "unit": "nM"}, {"measurement": "solubility", "setting": "[8]", "value": "> 100", "unit": "µM"}, {"measurement": "concentration at 1 h", "setting": "[9]", "value": 286, "unit": "nM"}, {"measurement": "Cmax", "setting": "[10]", "value": 6390, "unit": "nM"}, {"measurement": "concentration at 1 h", "setting": "[11]", "value": 249, "unit": "nM"}, {"measurement": "inhibition (INH)", "setting": "[12]", "value": "Not Active"}, {"measurement": "Activity", "setting": "[13]", "value": 32, "unit": "%"}, {"measurement": "IC50", "setting": "[14]", "value": "> 12.5", "unit": "µM"}, {"measurement": "EC50", "setting": "[15]", "value": 11.8, "unit": "µM"}, {"measurement": "AUC at 8 h", "setting": "[16]", "value": 2.75, "unit": "µM·h"}, {"measurement": "concentration at 6 h", "setting": "[17]", "value": 1280, "unit": "nM"}, {"measurement": "concentration at 72 h", "setting": "[18]", "value": 3210, "unit": "nM"}, {"measurement": "IC50", "setting": "[19]", "value": "> 12.5", "unit": "µM"}, {"measurement": "clearance", "setting": "[20]", "value": 18.3, "unit": "mL/min/kg"}, {"measurement": "concentration at 6 h", "setting": "[21]", "value": 156, "unit": "nM"}, {"measurement": "Tmax", "setting": "[22]", "value": 0.44, "unit": "h"}, {"measurement": "EC50", "setting": "[23]", "value": 0.0475, "unit": "µM"}, {"measurement": "concentration at 72 h", "setting": "[24]", "value": "< 7.5", "unit": "nM"}, {"measurement": "inhibition at 10 µM", "setting": "[25]", "value": 3.6, "unit": "%"}, {"measurement": "EC50", "setting": "[26]", "value": "> 25", "unit": "µM"}, {"measurement": "inhibition at 10 µM", "setting": "[27]", "value": 0, "unit": "%"}, {"measurement": "concentration at 72 h", "setting": "[28]", "value": 7.5, "unit": "nM"}, {"measurement": "concentration at 6 h", "setting": "[29]", "value": 427, "unit": "nM"}, {"measurement": "Vd", "setting": "[30]", "value": 1.17, "unit": "L/kg"}, {"measurement": "concentration at 12 h", "setting": "[31]", "value": 3070, "unit": "nM"}, {"measurement": "concentration at 1 h", "setting": "[32]", "value": 771, "unit": "nM"}, {"measurement": "inhibition at 10 µM", "setting": "[33]", "value": 3.5, "unit": "%"}, {"measurement": "concentration at 48 h", "setting": "[34]", "value": 871, "unit": "nM"}, {"measurement": "bioavailability", "setting": "[35]", "value": 121, "unit": "%"}, {"measurement": "metabolised at 4 µM", "setting": "[36]", "value": 12.3, "unit": "%"}, {"measurement": "IC50", "setting": "[37]", "value": "> 12.5", "unit": "µM"}]}]}
